Test results reported in patent publication US20030220363A1, “Use of propionyl L-carnitine for the preparation of a medicament capable of inducing apoptosis” (SIGMA-TAU INDUSTRIE FARMACEUTICHE RIUNITE S.p.A., priority 1998, published 2003).
Marks after values point to notes of the source that are not given here.

What was measured:
[1] = system: rat aorta intima; assay: Morphometric analysis of intima thickening after mechanical de-endothelialization; assay type: in vivo, Wistar rat; settings: 15 days after de-endothelialization, PLC 120 mg/Kg or Enalapril 1 mg/Kg p.c. die; for Intima volume/wall (percentage ratio between intima volume and aorta wall volume): ± s.e.m., preliminary results
Protocol: (§1) Wistar male rats, weighing between […], were used for the experiments. The rats were anaesthetised with Nembutal i.p. (35 mg/kg body weight) and the thoracic portion of aorta was submitted to endothelium mechanical removal with Fogarty 2F balloon probe (Baxter USA), according to the Baugartner and Studer method(1966) with minor modification (Orlandi 1994).
(§2) Two groups were subjected to pharmacological treatment with propionyl L-carnitine (PLC, 120 mg/Kg p.c. die), one group was treated with an ACE-inhibitor (Enalapril, 1 mg/Kg p.c. die); the two remaining groups were the control. Moreover, some non-balloonized animals were used as blanks.
The entity of intima thickening after 15 days was evaluated on Verhoeff-Van Gieson stained sections, using a grid overlapped on the image, consisting of 400 points, 1 cm from each other.
The analysis was made on hystological preparates through a Hamamatsu C3077 camera controlled by a Hamamatsu DVS 3000 image analyser and connected to a Polyvar-Reichert microscope. Morphometric evaluation was made at X116 magnification. The following parameters were evaluated a) relative volume of intima referred to arterial wall; b) relative volume of tunica media referred to arterial wall, by counting the overlapping points on the intima and mean tunica.
3-12 aorta sections were used at different level for each animal. This number was a function of the structure sizes, according to Sach's formula, showing the number of fields necessary to obtain a statistically significant sample.

[2] = system: smooth muscle cells of rat aorta; assay: In vivo proliferation of smooth muscle cells of rat aorta after mechanical de-endothelialization (anti-BrDU positive nuclei); design: species or system Wistar rat; settings: for +Nuclei/total nuclei % (anti-bromodeoxyuridine positive): 15 days after de-endothelialization, PLC 120 mg/Kg or Enalapril 1 mg/Kg p.c. die, ± s.e.m., preliminary results
Protocol: as §1, §2
The animals were sacrificed 3 and 15 days after de-endothelialization. Two hours before sacrifice, all the rats received i.v. a Bromodeoxyuridine solution (BrDU) (45 mg/kg body weight) in order to verify cell proliferation. One hour before sacrifice, some randomly selected animals received 1 ml Blue Evans (1% in 0.9% NaCl solution) in order to evaluate the degree of aorta disruption.
At sacrifice, the animals were anaesthetised with i.p. Nembutal and perfused, after washing with isotonic saline containing 3% Dextran 70, with buffered formalin for 20 minutes. Aortae were isolated, slightly washed in saline and dissected longitudinally. Carotid, heart and small intestine were also excised. All the organs were post-fixed in the same fixative for 24 hours at room temperature.
In order to put in evidence proliferating cells in damaged arteries, serial sections in paraffin of aortae were deparaffined, rehydrated, immersed in a 3% H2O2 solution for 20 minutes and incubated with trypsine (0.05 M in Tris-HCl, pH 7.6) at 37° C. After that, sections were treated with 2N HCl at 37° C. for 30 minutes, washed with 0.1 M sodium tetraborate for 10 minutes, incubated with normal horse serum (Vector) and subsequently with and-BrDU monoclonal antibody (Ylem) for 1 hour. The preparates were then reacted with biotilinated anti-mouse IgG (Vector) and the Streptoavidine-ABC-POD complex (Ylem).
The reaction was evidenced by using diaminobenzidine (DAB) as final chromogen. The count of positive nuclei for BrDU was made on the total number of nuclei. Such count was blind-made by two researchers separately. The difference between the two counts was always lower than 0.5%.
All data were analysed with the T Student's test. The differences between the groups were considered to be significant for P<0.05.

[3] = system: U266, multiple myleopma; assay: Inhibition of proliferation of neoplastic cells (Trypan Blue count), U266; assay type: cell-based, human
Protocol: (§3) Human derived neoplastic cell, obtained from Istituto Zooprofilattico of Brescia, were cultivated. The cells used for the experiment were: U266, multiple myleopma, HeLa, uterine cervix tumor, K562, chronic myeloid leukemia cells. HeLa and K562 were cultivated in RPMI+10% FCS, while those of U266 line were cultivated in RPMI+15% FCS, both media containing Penicilline/Streptomycine (50 U/mL and 50 μg/mL). Cells were plated in 6-wells plates (Falcon). Analysis were performed in cells having 50% confluence.
(§4) Each cell line was treated with PCL according to the folowing schemes:
(§5) a) 1 mM PLC for 24 hours (FIGS. 1-3); 1 mM PLC for 48 hours (FIGS. 1-3);
[…] 4-6).
(§6) At the end of each treatment, cells were counted in Burker chamber in the presence of Trypan Blue 0.5%, diluted 1:2. Count was made for each experimental group on samples coming from three wells.

[4] = system: SMC isolated from normotensive rats (WKY); assay: DNA synthesis by tritiated thymidine incorporation, WKY SMC; assay type: cell-based, rat; settings: culture day 6
Protocol: (§7) In vitro experiments were carried out to evaluate the effect of propionyl L-carnitine (PLC) on smooth muscular cells (SMC) isolated from aortae of spontaneously hypertensive rats (SHR) and, as control, on SMC isolated from normotensive rats (WKY).
(§8) These in vitro studies evidenced that PLC, when administered during culture exponential growth phase, reduces cell growth, evaluated as cell number/ml, as well as DNA synthesis, evaluated through incorporation of trititated thymidine (Tab. 4 and 5).

[5] = system: smooth muscular cells (SMC) isolated from aortae of spontaneously hypertensive rats (SHR); assay: DNA synthesis by tritiated thymidine incorporation, SHR SMC; assay type: cell-based, rat; settings: culture day 6
Protocol: as §7, §8

[6] = system: SMC isolated from normotensive rats (WKY); assay: Cell growth (cell number/ml) of cultured aortic SMC from WKY; assay type: cell-based, rat
Protocol: as §7, §8

[7] = system: smooth muscular cells (SMC) isolated from aortae of spontaneously hypertensive rats (SHR); assay: Cell growth (cell number/ml) of cultured aortic SMC from SHR; assay type: cell-based, rat
Protocol: as §7, §8

[8] = system: HeLa, uterine cervix tumor; assay: Inhibition of proliferation of neoplastic cells (Trypan Blue count), HeLa; assay type: cell-based, human; design: inhibition of proliferation after removal of PLC: dose or concentration left out as unconfirmed
Protocol: as §3, §4, §5
[…] 4-6).
as §6

[9] = system: K562, chronic myeloid leukemia cells; assay: Inhibition of proliferation of neoplastic cells (Trypan Blue count), K562; assay type: cell-based, human
Protocol: as §3, §4, §5
[…] 4-6).
as §6

[10] = system: SMC isolated from normotensive rats (WKY); assay: Apoptotic cell count after Hoechst 33258 staining, WKY SMC; assay type: cell-based, rat
Protocol: as §7
(§9) As a further characterisation of smooth muscular cells in the presence of PLC, the percentage of apoptotic cells was measured both in basal conditions and in oxidative stress conditions. Apoptosis evaluation was carried out by counting the number of apoptotic cells present on a total of 1000 cells, after specific DNA staining with Hoechst 33258.
In WKY cultures, apoptosis percentage is negligible (tab. 6)

[11] = system: smooth muscular cells (SMC) isolated from aortae of spontaneously hypertensive rats (SHR); assay: Apoptotic cell count after Hoechst 33258 staining, SHR SMC; assay type: cell-based, rat
Protocol: as §7, §9

`CCOC(=O)[C@H](CCc1ccccc1)N[C@@H](C)C(=O)N1CCC[C@H]1C(=O)O` [Enalapril] was tested, and the “Reduction (% to CTR) of intima relative volume” value [1] was 26.14%, the “Intima volume/wall (percentage ratio between intima volume and aorta wall volume)” value [1] was 21.96 ± 1.20 ^(e) % and the “+Nuclei/total nuclei % (anti-bromodeoxyuridine positive)” value (from here on “+Nuclei/total nuclei %”) ([2]; intima tunica) was “No significant differences”. For the same compound, the “+Nuclei/total nuclei %” value ([2]; intima tunica, listed as enalapril) was 2.43 ± 0.39 (c) %, the “+Nuclei/total nuclei %” value ([2]; tunica media) was “No significant differences” and the “+Nuclei/total nuclei %” value ([2]; tunica media, listed as enalapril) was 0.27 ± 0.09%.
With `CCC(=O)O[C@H](CC(=O)[O-])C[N+](C)(C)C` [PLC, propionyl L-carnitine] the “inhibition of proliferation with respect to the control” value (“inhibition … to the control” below) ([3]; U266, 1 mM PLC for 24 hours) was 46%, the “inhibition … to the control” value ([3]; U266, 1 mM PLC for 48 hours) was 26% and the “inhibition of proliferation after removal of PLC” value (“inhibition … of PLC” below) ([3]; U266, 24 hours with 1 mM PLC, then fresh medium without the substance) was 26%. The tritiated thymidine incorporation [4] was 2.56E−05 μCi/μgDNA, the tritiated thymidine incorporation [5] was 1.81E−05 μCi/μgDNA and the cell number/ml ([6]; culture day 2) was 3*10^4 ± 2 /ml. For the same compound, the cell number/ml ([6]; culture day 3) was 4*10^4 ± 2 /ml, the cell number/ml ([6]; culture day 4) was 6*10^4 ± 2 /ml and the cell number/ml ([6]; culture day 6) was 8*10^4 ± 3 /ml. For the same compound, the cell number/ml ([7]; culture day 2) was 7*10^4 ± 4 /ml, the cell number/ml ([7]; culture day 3) was 4*10^4 ± 2 /ml and the cell number/ml ([7]; culture day 4) was 7*10^4 ± 4 /ml. The cell number/ml ([7]; culture day 6) was 20*10^4 ± 5 /ml, the “inhibition … to the control” value ([8]; 1 mM PLC for 24 hours) was 25% and the “inhibition … to the control” value ([8]; 1 mM PLC for 48 hours) was 17%. For the same compound, the “inhibition … of PLC” value ([8]; 24 hours PLC, then fresh medium without the substance) was 20%, the “Reduction (% to CTR) of intima relative volume” value [1] was 31.11% and the “Intima volume/wall (percentage ratio between intima volume and aorta wall volume)” value [1] was 20.48 ± 2.73 ^(d) %. For the same compound, the “inhibition … to the control” value ([9]; K562, 1 mM PLC for 24 hours) was 37%, the “inhibition … to the control” value ([9]; K562, 1 mM PLC for 48 hours) was 39% and the “inhibition … of PLC” value ([9]; K562, 24 hours with 1 mM PLC, then fresh medium without the substance) was 21%. For the same compound, the “Reduction % of BrDU-positive nuclei against control” value ([2]; tunica media, 3 days after de-endothelialization, PLC 120 mg/Kg p.c. die) was 59.3%, the “positive nuclei/total nuclei % (anti-bromodeoxyuridine positive)” value ([2]; tunica media, 3 days after de-endothelialization, PLC 120 mg/Kg p.c. die, ± s.e.m) was 2.59 ± 0.56% and the apoptotic cell percentage ([10]; basal conditions) was 0%. It also gave an apoptotic cell percentage ([10]; oxidative stress) of 2%, an apoptotic cell percentage ([11]; basal conditions) of 2% and an apoptotic cell percentage ([11]; oxidative stress) of 10%.
